{"source": "patent US20060222599A1", "about": "“Inhalative powder formulations containing the CGRP-antagonist 1 [N2-[3,5-dibromo-N-[[4-(3,4-dihydro-2(1H)-oxoquinazolin-3-yl)-1-piperidinyl]carbonyl]-D-tyrosyl]-L-lysyl]-4-(4-pyridinyl)-piperazine” (Boehringer Ingelheim International GmbH, priority 2003, published 2006)", "key": {"[1]": {"assay": "specific surface area (multi point BET, nitrogen)", "type": "physicochemical", "conditions": "air-jet-ground, anhydrous", "excerpt": "• Measuring method: In order to determine the particle size the powder is fed into a laser diffraction spectrometer using a dispersing unit. The median value X50 refers to the particle size below which 50% of the quantity of particles fall. The Q(5.8) value describes the percentage of particles which are less than 5.8 μm in size. • Measuring device: Laser diffraction spectrometer (HELOS), Messrs. • Sympatec • Software: WINDOX Version 3.3/REL 1 • Dispersing unit: RODOS/dispersing pressure: 3 bar • Focal length: 100 mm [measuring range: 0.9 . . . . 175 μm] • Evaluation method: HRLD (V 3.3 Rel. 1) b) Determining the Specific Surface Area: • Measuring method: The specific surface is determined by exposing the powder sample to a nitrogen atmosphere at different pressures.\nCooling the sample causes the nitrogen molecules to be condensed on the surface of the particles. The quantity of condensed nitrogen is determined by means of the drop in pressure in the system and the specific surface area of the sample is calculated by means of the surface nitrogen requirement and the weight of the sample. • Measuring device: Tri Star Multi Point BET, Messrs. Micromeritics • Heating station: VacPrep 061, Messrs. Micromeritics\nHeating: approx. 12 h/40° C."}, "[2]": {"assay": "hygroscopicity", "type": "physicochemical"}, "[3]": {"conditions": "conventional formulations; cited from earlier work"}, "[4]": {"assay": "physical stability of the amorphous micronised active substance in powder mixtures with excipients", "type": "physicochemical", "excerpt": "It is known that the amorphous state of solids is thermodynamically unstable. In particular, this contributes to the fact that microparticles which have amorphous parts or are purely amorphous are metastable in their physicochemical properties. Typically, amorphous or partially amorphous pharmaceutical active substances and excipients, such as sugars, for example, recrystallise spontaneously during storage under normal conditions. The process may be accelerated by an increase in the relative humidity and possibly the temperature. In association with this recrystallisation, the particles change their surface characteristics, their particle morphology and their particle size."}, "[5]": {"assay": "systemic bioavailability after pulmonary or nasal inhalation", "type": "in vivo", "conditions": "powder mixture with excipients, inhaled"}}, "note": "Where two headings read alike, the source gives them in different places."}
{"smiles": "NCCCC[C@H](NC(=O)[C@@H](Cc1cc(Br)c(O)c(Br)c1)NC(=O)N1CCC(N2Cc3ccccc3NC2=O)CC1)C(=O)N1CCN(c2ccncc2)CC1", "note": "[A, 1-[N^2-[3,5-dibromo-N-[[4-(3,4-dihydro-2(1H)-oxoquinazolin-3-yl)-1-piperidinyl]carbonyl]-D-tyrosyl]-L-lysyl]-4-(4-pyridinyl)-piperazine]", "values": [{"measurement": "specific surface area", "setting": "[1]", "result": 20.2, "unit": "m^2/g"}, {"measurement": "hygroscopicity", "setting": "[2]", "result": "hygroscopic"}, {"measurement": "hygroscopicity", "setting": "[2]; listed as active substance", "result": "strongly hygroscopic"}, {"measurement": "oral bioavailability", "setting": "[3]", "result": "very limited oral bioavailability"}, {"measurement": "amorphous form on storage (X-ray powder diffractometry)", "setting": "[4]; amorphous micronised particles, shelf life of the medicament", "result": "maintained throughout the shelf life"}, {"measurement": "physical stability", "setting": "[4]; powder mixtures with excipients", "result": "physically stable"}, {"measurement": "bioavailability by pulmonary or nasal inhalation", "setting": "[5]", "result": "sufficiently bioavailable"}]}
